From ChEMBL document CHEMBL4196124, “Reverse Hydroxamate Inhibitors of Bone Morphogenetic Protein 1” (ACS Med Chem Lett, 2018) come the findings set out here.

In one series the target is Cytochrome P450 3A4 (Homo sapiens, UniProt P08684). Nature of the series: Time dependent inhibition of CYP3A4 (unknown origin) at 33 uM measured over 15 mins relative to control. The series is classed as ADME. Particulars: 0.25 h.
Series [1] is filed under the species Homo sapiens. Nature of the series: Selectivity ratio of IC50 for recombinant human C-terminal MMP1 (81 to 249 residues) catalytic domain expressed in Escherichia coli to IC50 for recombinant human N-terminal 6His/flag-tagged BMP1 (121 to 721 residues) expressed in CHO cells.
The species named for series [2] is Homo sapiens. Kind of series: Selectivity ratio of IC50 for recombinant human C-terminal MMP2 (81 to 423 residues) catalytic domain expressed in Escherichia coli to IC50 for recombinant human N-terminal 6His/flag-tagged BMP1 (121 to 721 residues) expressed in CHO cells.
The species entered for series [3] is Homo sapiens. Kind of series: Selectivity ratio of IC50 for recombinant human C-terminal MMP3 (83 to 255 residues) catalytic domain expressed in Escherichia coli to IC50 for recombinant human N-terminal 6His/flag-tagged BMP1 (121 to 721 residues) expressed in CHO cells.
In a further series the target is T1, Tolloid-like protein 2 (Homo sapiens, UniProt Q9Y6L7).
T1 sequence (Q9Y6L7 whole entry): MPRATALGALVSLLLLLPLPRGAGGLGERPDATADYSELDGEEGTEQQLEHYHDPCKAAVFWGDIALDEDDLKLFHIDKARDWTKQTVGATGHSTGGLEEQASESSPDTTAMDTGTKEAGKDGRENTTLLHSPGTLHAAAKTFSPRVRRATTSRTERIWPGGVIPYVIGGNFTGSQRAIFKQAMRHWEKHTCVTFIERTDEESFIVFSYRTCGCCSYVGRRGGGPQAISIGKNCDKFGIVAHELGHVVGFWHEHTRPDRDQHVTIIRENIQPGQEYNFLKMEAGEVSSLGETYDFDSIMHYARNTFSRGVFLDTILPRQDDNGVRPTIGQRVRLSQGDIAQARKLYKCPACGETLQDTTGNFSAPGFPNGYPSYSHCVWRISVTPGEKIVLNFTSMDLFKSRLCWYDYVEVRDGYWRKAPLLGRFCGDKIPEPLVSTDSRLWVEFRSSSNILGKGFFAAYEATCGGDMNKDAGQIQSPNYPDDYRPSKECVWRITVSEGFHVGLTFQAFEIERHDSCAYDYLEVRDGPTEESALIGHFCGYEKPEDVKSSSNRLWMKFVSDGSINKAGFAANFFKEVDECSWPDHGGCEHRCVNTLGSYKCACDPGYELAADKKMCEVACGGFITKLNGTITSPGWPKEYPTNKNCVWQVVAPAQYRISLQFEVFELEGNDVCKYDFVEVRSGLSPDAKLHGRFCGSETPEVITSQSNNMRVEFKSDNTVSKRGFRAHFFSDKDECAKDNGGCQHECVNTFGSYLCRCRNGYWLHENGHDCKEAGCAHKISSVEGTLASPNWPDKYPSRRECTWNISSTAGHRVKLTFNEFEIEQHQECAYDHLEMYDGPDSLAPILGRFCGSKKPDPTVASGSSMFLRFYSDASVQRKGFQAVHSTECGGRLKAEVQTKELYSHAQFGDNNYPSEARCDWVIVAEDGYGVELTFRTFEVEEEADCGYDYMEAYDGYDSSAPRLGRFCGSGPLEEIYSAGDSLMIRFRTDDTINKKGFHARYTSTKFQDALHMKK
Kind of series: Inhibition of recombinant human N-terminal 6His-tagged TLL2 (26 to 1015 residues) expressed in CHO cells using ((5-FAM)-ELIDQYDVQRDDSSDGSLED-K(5,6 TAMRA)-CONH2) as substrate preincubated for 10 mins followed by substrate addition measured after 60 mins.

The species entered for series [4] is Homo sapiens. Nature of the series: Selectivity ratio of IC50 for MMP10 (unknown origin) to IC50 for recombinant human N-terminal 6His/flag-tagged BMP1 (121 to 721 residues) expressed in CHO cells. In kind it is cell-based.
The species named for series [5] is Homo sapiens. Nature of the series: Selectivity ratio of IC50 for recombinant human C-terminal MMP9 (88 to 438 residues) catalytic domain expressed in Escherichia coli to IC50 for recombinant human N-terminal 6His/flag-tagged BMP1 (121 to 721 residues) expressed in CHO cells.
Series [6] is filed under the species Homo sapiens. Kind of series: Selectivity ratio of IC50 for recombinant human C-terminal MMP12 (84 to 255 residues) catalytic domain expressed in Escherichia coli to IC50 for recombinant human N-terminal 6His/flag-tagged BMP1 (121 to 721 residues) expressed in CHO cells.
For series [7], the species on record is Homo sapiens. Kind of series: Selectivity ratio of IC50 for recombinant human C-terminal MMP7 (78 to 250 residues) catalytic domain expressed in Escherichia coli to IC50 for recombinant human N-terminal 6His/flag-tagged BMP1 (121 to 721 residues) expressed in CHO cells.

Each structure is given as a SMILES string.

Sequence of Cytochrome P450 3A4 (P08684 whole entry, the tested form may be a part): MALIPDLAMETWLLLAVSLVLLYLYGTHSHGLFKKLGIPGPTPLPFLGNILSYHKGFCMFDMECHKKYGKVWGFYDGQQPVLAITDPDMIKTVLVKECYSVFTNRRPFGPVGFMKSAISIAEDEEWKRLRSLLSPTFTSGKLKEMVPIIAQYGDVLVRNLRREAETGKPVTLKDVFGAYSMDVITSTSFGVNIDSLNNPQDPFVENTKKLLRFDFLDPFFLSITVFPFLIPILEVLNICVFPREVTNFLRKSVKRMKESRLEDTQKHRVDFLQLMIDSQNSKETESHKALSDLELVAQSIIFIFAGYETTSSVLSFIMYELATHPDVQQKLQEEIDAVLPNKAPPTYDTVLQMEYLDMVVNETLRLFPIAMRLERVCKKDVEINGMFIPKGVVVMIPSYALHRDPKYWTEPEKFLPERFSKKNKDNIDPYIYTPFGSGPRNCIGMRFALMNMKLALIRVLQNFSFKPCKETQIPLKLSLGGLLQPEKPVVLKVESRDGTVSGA

As usually defined, the IC50 is the concentration that inhibits the measured activity by half. `CCCCC[C@@H](C(=O)NCNC(=O)c1ccc(-c2ccccc2)o1)[C@@H](CC)N(O)C=O`: the “fold change (FC)” value on Cytochrome P450 3A4 amounted to 4.3. Further, the Ratio IC50 in the series listed under Homo sapiens [1], in the series listed under Homo sapiens [2], in the series listed under Homo sapiens [3], in the series listed under Homo sapiens [4], in the series filed under Homo sapiens [5] and in the series listed under Homo sapiens [6] was over 30 throughout. Also, in the series filed under Homo sapiens [7], the Ratio IC50 was over 30. The IC50 at Tolloid-like protein 2 was determined as 0.16 µM.
